Columns and labels:
CYP1A2 = assay: In vitro enzyme activity / mRNA induction in human hepatocytes; assay type: in vitro ADME
[1] = biological target: T1, organic cation transporter (OCT)2 (Homo sapiens, UniProt O15244); assay: In vitro inhibition of OCT2 activity; assay type: in vitro ADME; conditions: read-out: 50% inhibitory concentration (IC50), OCT2
T1 sequence (O15244 1-555): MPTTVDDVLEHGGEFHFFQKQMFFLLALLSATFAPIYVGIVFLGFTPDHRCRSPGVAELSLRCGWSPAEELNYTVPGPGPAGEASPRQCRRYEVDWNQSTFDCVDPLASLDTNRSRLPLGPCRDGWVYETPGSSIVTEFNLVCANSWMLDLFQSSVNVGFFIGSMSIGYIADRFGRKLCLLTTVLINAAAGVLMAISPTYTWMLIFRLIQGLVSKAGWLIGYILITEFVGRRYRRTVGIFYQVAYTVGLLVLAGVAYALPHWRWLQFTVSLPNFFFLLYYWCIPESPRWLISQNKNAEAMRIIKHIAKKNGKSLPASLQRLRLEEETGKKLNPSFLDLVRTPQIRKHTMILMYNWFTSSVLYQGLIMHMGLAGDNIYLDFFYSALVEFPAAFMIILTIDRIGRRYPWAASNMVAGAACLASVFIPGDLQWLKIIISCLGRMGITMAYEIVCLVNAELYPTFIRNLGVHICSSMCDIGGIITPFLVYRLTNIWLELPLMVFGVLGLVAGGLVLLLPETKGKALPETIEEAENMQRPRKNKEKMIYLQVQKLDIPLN

Question: `Cc1cc(Nc2ncnc3ccc(NC4=NC(C)(C)CO4)cc23)ccc1Oc1ccn2ncnc2c1` [tucatinib] was tested. Which “Induction of in vitro enzyme activity or messenger ribonucleic acid, CYP1A2” value (CYP1A2) did it give?
Answer: did not induce

Question: What about the IC50 [1] of the same compound?
Answer: 14.7 µM

Source: patent publication US20220193076A1, “METHODS OF TREATING BREAST CANCER WITH TUCATINIB” (Seagen Inc., priority 2019, published 2022)
